Measurements: PubChem BioAssay AID220 (DTP/NCI, 2004)
Values joined by “and” are separate entries in the source; they are usually repeats but may differ in a detail not shown here. Equal entries are not always repeated. Records with an inconclusive call do not appear.

Tested on: CD8F1 mice, subcutaneous mammary adenocarcinoma, T/C%
Experiment: NCI In Vivo Anticancer Drug Screen. Data for tumor model Mammary Adenocarcinoma CD8F1 (subcutaneous) in CD8F1
Settings: higher = larger tumour
Summary of the method: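 Tumor-bearing mice, transplantable model; readout survival or tumor size; value = treated (T) / vehicle control (C).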

[1] = endpoint: median tumor weight (est.), dose: 50.0 mg/kg/injection, schedule: Q07DX005 (ip), vehicle: Klucel (hydroxypropylcellulose) (HPC)

With `CC1CN1C(=O)NCCCCCCNC(=O)N1CC1C` (configuration not stated) the T/C (endpoint: median tumor weight (est.), dose: 5.0 mg/kg/injection, schedule: Q07DX005 (ip), vehicle: Klucel (hydroxypropylcellulose) (HPC)) was 75 % of control and 86 % of control, the T/C (endpoint: median tumor weight (est.), dose: 10.0 mg/kg/injection, schedule: Q07DX005 (ip), vehicle: Klucel (hydroxypropylcellulose) (HPC)) was 40 % of control and 55 % of control and the T/C (endpoint: median tumor weight (est.), dose: 20.0 mg/kg/injection, schedule: Q07DX005 (ip), vehicle: Klucel (hydroxypropylcellulose) (HPC)) was 6 % of control and 19 % of control.
In the case of `CCc1nc(N)nc(N)c1-c1ccc(Cl)c([N+](=O)[O-])c1`, the T/C (endpoint: median tumor weight change, dose: 6.25 mg/kg/injection, schedule: Q01DX001 (ip), vehicle: saline with Tween-80) is reported as 47 % of control, the T/C (endpoint: median tumor weight change, dose: 12.5 mg/kg/injection, schedule: Q01DX001 (ip), vehicle: saline with Tween-80) is reported as 39 % of control and the T/C (endpoint: median tumor weight change, dose: 25.0 mg/kg/injection, schedule: Q01DX001 (ip), vehicle: saline with Tween-80) is reported as 20 % of control. The T/C (endpoint: median tumor weight change, dose: 50.0 mg/kg/injection, schedule: Q01DX001 (ip), vehicle: saline with Tween-80) was 38 % of control and the T/C (endpoint: median tumor weight change, dose: 100.0 mg/kg/injection, schedule: Q01DX001 (ip), vehicle: saline with Tween-80) was 47 % of control.
`O=C(Nc1nncs1)c1ccncc1` was tested, and the T/C (endpoint: median tumor weight (est.), dose: 25.0 mg/kg/injection, schedule: Q07DX005 (ip), vehicle: saline with Tween-80) was 151 % of control and the T/C (endpoint: median tumor weight (est.), dose: 800.0 mg/kg/injection, schedule: Q07DX005 (ip), vehicle: saline with Tween-80) was 69 % of control.
In the case of `O=C(CCCN1CCC(O)(c2cccc(C(F)(F)F)c2)CC1)c1ccc(F)cc1`, the T/C (endpoint: median tumor weight (est.), dose: 3.12 mg/kg/injection, schedule: Q07DX005 (ip), vehicle: Klucel (hydroxypropylcellulose) (HPC)) is reported as 116 % of control and 118 % of control and the T/C [1] is reported as 55 % of control and 62 % of control.
In the case of `COC1C(O)C(C)OC(OC2C(Oc3cccc4c(O)c5c(=O)oc6ccc(C)c7c(=O)oc(c34)c5c67)OC(C)C(O)C2O)C1O` (configuration not stated), the T/C (endpoint: median tumor weight (est.), dose: 12.5 mg/kg/injection, schedule: Q07DX005 (ip), vehicle: Klucel (hydroxypropylcellulose) (HPC)) is reported as 73 % of control, the T/C (endpoint: median tumor weight (est.), dose: 25.0 mg/kg/injection, schedule: Q07DX005 (ip), vehicle: Klucel (hydroxypropylcellulose) (HPC)) is reported as 75 % of control and the T/C [1] is reported as 50 % of control.
In the case of `O=C1NC(=O)C2C3C=CC(C12)C1C2C(=O)NC(=O)C2C31` (configuration not stated), the T/C (endpoint: median tumor weight change, dose: 18.0 mg/kg/injection, schedule: Q01DX005 (ip), vehicle: water) is reported as 62 % of control, the T/C (endpoint: median tumor weight change, dose: 30.0 mg/kg/injection, schedule: Q01DX005 (ip), vehicle: water) is reported as 17 % of control and the T/C (endpoint: median tumor weight change, dose: 50.0 mg/kg/injection, schedule: Q01DX005 (ip), vehicle: water) is reported as -5 % of control. The T/C (endpoint: median tumor weight change, dose: 54.0 mg/kg/injection, schedule: Q01DX001 (ip), vehicle: saline) was 64 % of control, the T/C (endpoint: median tumor weight change, dose: 62.0 mg/kg/injection, schedule: Q01DX001 (ip), vehicle: saline with Tween-80) was 70 % of control and the T/C (endpoint: median tumor weight change, dose: 62.5 mg/kg/injection, schedule: Q01DX001 (ip), vehicle: saline with Tween-80) was 78 % of control. For the same molecule, the T/C (endpoint: median tumor weight change, dose: 90.0 mg/kg/injection, schedule: Q01DX001 (ip), vehicle: saline) was 30 % of control, the T/C (endpoint: median tumor weight change, dose: 125.0 mg/kg/injection, schedule: Q01DX001 (ip), vehicle: saline with Tween-80) was 15 % of control and 27 % of control and the T/C (endpoint: median tumor weight change, dose: 250.0 mg/kg/injection, schedule: Q01DX001 (ip), vehicle: saline with Tween-80) was -25 % of control.
With `COC1/C=C\C=C(/C)C(=O)NC2=CC(=O)C=C(C2=O)C(OC)C(C)CC(OC)C(OC)C(C)/C=C(/C)C1OC(N)=O` (configuration not stated) the T/C (endpoint: median tumor weight change, dose: 1.88 mg/kg/injection, schedule: Q01DX001 (ip), vehicle: Klucel (hydroxypropylcellulose) (HPC)) was 103 % of control and the T/C (endpoint: median tumor weight change, dose: 3.75 mg/kg/injection, schedule: Q01DX001 (ip), vehicle: Klucel (hydroxypropylcellulose) (HPC)) was 46 % of control.
`CCCCNC(C)C1(O)Cc2c(O)c3c(c(O)c2C(OC2CC(N)C(O)C(C)O2)C1)C(=O)c1c(OC)cccc1C3=O` (configuration not stated) was tested, and the T/C (endpoint: median tumor weight (est.), dose: 28.5 mg/kg/injection, schedule: Q07DX005 (ip), vehicle: water) was 100 % of control, the T/C (endpoint: median tumor weight (est.), dose: 42.7 mg/kg/injection, schedule: Q07DX005 (ip), vehicle: water) was 154 % of control and the T/C (endpoint: median tumor weight (est.), dose: 64.0 mg/kg/injection, schedule: Q07DX005 (ip), vehicle: water) was 66 % of control. For the same molecule, the T/C (endpoint: median tumor weight (est.), dose: 96.0 mg/kg/injection, schedule: Q07DX005 (ip), vehicle: water) was 20 % of control, the T/C (endpoint: median tumor weight change, dose: 62.5 mg/kg/injection, schedule: Q01DX001 (ip), vehicle: suspension in saline) was 98 % of control and the T/C (endpoint: median tumor weight change, dose: 125.0 mg/kg/injection, schedule: Q01DX001 (ip), vehicle: suspension in saline) was 65 % of control. The T/C (endpoint: median tumor weight change, dose: 250.0 mg/kg/injection, schedule: Q01DX001 (ip), vehicle: suspension in saline) was 74 % of control, the T/C (endpoint: median tumor weight change, dose: 500.0 mg/kg/injection, schedule: Q01DX001 (ip), vehicle: suspension in saline) was 15 % of control and the T/C (endpoint: median tumor weight change, dose: 1000.0 mg/kg/injection, schedule: Q01DX001 (ip), vehicle: suspension in saline) was 3 % of control.
`COc1cccc2c1C(=O)c1c(O)c3c(c(O)c1C2=O)CC(O)(/C(C)=N/NC(=O)CCCCC(=O)N/N=C(\C)C1(O)Cc2c(O)c4c(c(O)c2C(OC2CC(N)C(O)C(C)O2)C1)C(=O)c1c(OC)cccc1C4=O)CC3OC1CC(N)C(O)C(C)O1` (configuration not stated) was tested, and the T/C (endpoint: median tumor weight change, dose: 16.0 mg/kg/injection, schedule: Q01DX001 (ip), vehicle: water) was 113 % of control and the T/C (endpoint: median tumor weight change, dose: 31.0 mg/kg/injection, schedule: Q01DX001 (ip), vehicle: water) was 36 % of control.
